Literature values, collected in patent US6797704B2, “Systemic delivery of compounds through non-invasive bladder administration” (The Johns Hopkins University, priority 2000, dated 2004).

How the values were obtained:
[1] = men
murine lung tumors = conditions: co-injection with naked DNA; from more than 250

## COc1cccc2c1C(=O)c1c(O)c3c(c(O)c1C2=O)C[C@@](O)(C(=O)CO)C[C@@H]3O[C@H]1C[C@H](N)[C@H](O)[C@H](C)O1 [doxorubicin]
[1]
  systemic absorption following intravesical administration: minimal

B1: recombinant murine interleukin-12: cytokine co-injected with naked DNA in a literature lung tumor study (protein, UniProt P43431 23-215; P43432 23-335, looked up)
Interleukin-12 subunit alpha: RVIPVSGPARCLSQSRNLLKTTDDMVKTAREKLKHYSCTAEDIDHEDITRDQTSTLKTCLPLELHKNESCLATRETSSTTRGSCLPPQKTSLMMTLCLGSIYEDLKMYQTEFQAINAALQNHNHQQIILDKGMLVAIDELMQSLNHNGETLRQKPPVGEADPYRVKMKLCILLHAFSTRVVTINRVMGYLSSA
Interleukin-12 subunit beta: MWELEKDVYVVEVDWTPDAPGETVNLTCDTPEEDDITWTSDQRHGVIGSGKTLTITVKEFLDAGQYTCHKGGETLSHSHLLLHKKENGIWSTEILKNFKNKTFLKCEAPNYSGRFTCSWLVQRNMDLKFNIKSSSSSPDSRAVTCGMASLSAEKVTLDQRDYEKYSVSCQEDVTCPTAEETLPIELALEARQQNKYENYSTSFFIRDIIKPDPPKNLQMKPLKNSQVEVSWEYPDSWSTPHSYFSLKFFVRIQRKKEKMKETEEGCNQKGAFLVEKTSTEVQCKGGNVCVQAQDRYYNSSCSKWACVPCRVRS
Murine lung tumors
  number of primary lung metastases: around 10
